Experiments:
Gal-3–Gal-3 [1] = biological target: T1, Gal-3–Gal-3 (Homo sapiens, UniProt P17931); assay: isothermal titration calorimetry; assay type: binding; conditions: 25 °C, pH 7.2, 20 mM phosphate, 10 mM NaCl, 2 mM β-mercaptoethanol, one-set-of-sites model, dissolved and dialyzed
T1 construct: gene LGALS3; engineered covalent homodimer: two Gal-3 CRDs fused directly C- to N-terminus in one polypeptide, no tail; recombinant from bacteria
Description: isothermal titration calorimetry on Gal-3–Gal-3

[2] = biological target: T2, Gal-3 (full-length wild-type human galectin-3) (Homo sapiens, UniProt P17931); assay: isothermal titration calorimetry; assay type: binding; conditions: 25 °C, pH 7.2, 20 mM phosphate, 10 mM NaCl, 2 mM β-mercaptoethanol; one-set-of-sites model; lyophilized protein
T2 construct: gene LGALS3; full-length with N-terminal tail (two Ser phosphorylation sites, nine collagen-like repeats) and CRD; monomeric in solution; biotinylated for tissue sections
Description: isothermal titration calorimetry on Gal-3 (full-length wild-type human galectin-3)

Gal-3–8S–Gal-3 = biological target: T3, Gal-3–8S–Gal-3 (Homo sapiens, UniProt P17931); assay: isothermal titration calorimetry; assay type: binding; conditions: 25 °C, pH 7.2, 20 mM phosphate, 10 mM NaCl, 2 mM β-mercaptoethanol; one-set-of-sites model; lyophilized protein
T3 construct: gene LGALS3; engineered covalent homodimer: two Gal-3 CRDs joined by the 33-residue Gal-8S linker peptide in one polypeptide, no tail; recombinant from bacteria
Description: isothermal titration calorimetry on Gal-3–8S–Gal-3

Gal-3 CRD (trGal-3) = biological target: T4, Gal-3 CRD (trGal-3) (Homo sapiens, UniProt P17931); assay: isothermal titration calorimetry; assay type: binding; conditions: 25 °C, pH 7.2, 20 mM phosphate, 10 mM NaCl, 2 mM β-mercaptoethanol; one-set-of-sites model; lyophilized protein
T4 construct: gene LGALS3; C-terminal carbohydrate recognition domain only, N-terminal tail proteolytically removed; recombinant from bacteria
Description: isothermal titration calorimetry on Gal-3 CRD (trGal-3)

Gal-3–Gal-1 = biological target: T5, Gal-3–Gal-1; assay: isothermal titration calorimetry; assay type: binding, Homo sapiens; conditions: 25 °C, pH 7.2, 20 mM phosphate, 10 mM NaCl, 2 mM β-mercaptoethanol; one-set-of-sites model; protein precipitated, dissolved and dialyzed
T5 construct: gene LGALS3; engineered heterodimer in one polypeptide: N-terminal Gal-3 CRD fused directly to Gal-1 CRD; recombinant from bacteria
Description: isothermal titration calorimetry on Gal-3–Gal-1

Gal-1–8S–Gal-3 = biological target: T6, Gal-1–8S–Gal-3; assay: isothermal titration calorimetry; assay type: binding, Homo sapiens; conditions: 25 °C, pH 7.2, 20 mM phosphate, 10 mM NaCl, 2 mM β-mercaptoethanol; one-set-of-sites model; lyophilized protein (first of two preparations)
T6 construct: gene LGALS1; engineered heterodimer in one polypeptide: N-terminal Gal-1 CRD, 33-residue Gal-8S linker, Gal-3 CRD; recombinant from bacteria
Description: isothermal titration calorimetry on Gal-1–8S–Gal-3

Gal-3–8S–Gal-1 = biological target: T7, Gal-3–8S–Gal-1; assay: isothermal titration calorimetry; assay type: binding, Homo sapiens; conditions: 25 °C, pH 7.2, 20 mM phosphate, 10 mM NaCl, 2 mM β-mercaptoethanol; one-set-of-sites model; lyophilized protein (first of two preparations)
T7 construct: gene LGALS3; engineered heterodimer in one polypeptide: N-terminal Gal-3 CRD, 33-residue Gal-8S linker, Gal-1 CRD; recombinant from bacteria
Description: isothermal titration calorimetry on Gal-3–8S–Gal-1

Gal-1–Gal-3 = biological target: T8, Gal-1–Gal-3; assay: isothermal titration calorimetry; assay type: binding, Homo sapiens; conditions: 25 °C, pH 7.2, 20 mM phosphate, 10 mM NaCl, 2 mM β-mercaptoethanol; one-set-of-sites model; protein precipitated, dissolved and dialyzed
T8 construct: gene LGALS1; engineered heterodimer in one polypeptide: N-terminal Gal-1 CRD fused directly to Gal-3 CRD; recombinant from bacteria
Description: isothermal titration calorimetry on Gal-1–Gal-3

Gal-3–Gal-3 [3] = biological target: T1, Gal-3–Gal-3; assay: inhibition of biotinylated lectin staining, fixed murine jejunum sections; conditions: 0.5 mM Lac as part of glycocluster; labelled lectin 0.25 µg/mL
[4] = biological target: T2, Gal-3 (full-length wild-type human galectin-3); assay: as above; conditions: 0.5 mM Lac as part of glycocluster; labelled lectin 4 µg/mL

T1 sequence (P17931 114-250 limits assumed): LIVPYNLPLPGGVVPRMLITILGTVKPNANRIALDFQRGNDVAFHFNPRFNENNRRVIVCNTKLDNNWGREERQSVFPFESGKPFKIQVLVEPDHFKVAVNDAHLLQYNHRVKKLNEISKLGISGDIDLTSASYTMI
T2 sequence (P17931 2-250): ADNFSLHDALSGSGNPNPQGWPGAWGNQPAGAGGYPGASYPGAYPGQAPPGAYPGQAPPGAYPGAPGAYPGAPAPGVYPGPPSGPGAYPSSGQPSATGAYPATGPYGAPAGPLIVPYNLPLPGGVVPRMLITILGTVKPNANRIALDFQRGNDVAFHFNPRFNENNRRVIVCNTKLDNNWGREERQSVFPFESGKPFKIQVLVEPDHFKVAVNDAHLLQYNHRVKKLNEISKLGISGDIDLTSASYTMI
T3 sequence (P17931 114-250 limits assumed): as the sequence (P17931 114-250 limits assumed) above
T4 sequence (P17931 114-250 limits assumed): as above

Compound | Kd (Gal-3–Gal-3 [1]; protein precipitated) | Kd [2] | Kd (Gal-3–8S–Gal-3) | Kd (Gal-3 CRD (trGal-3)) | Kd (Gal-3–Gal-3 [1]; protein precipitated with ammonium sulfate) | Kd (Gal-3–Gal-1) | Kd (Gal-1–8S–Gal-3) | Kd (Gal-3–8S–Gal-1) | Kd (Gal-1–Gal-3) | staining inhibition (Gal-3–Gal-3 [3]) | staining inhibition [4]
CC(=O)N[C@H]1C(O)O[C@H](CO)[C@H](O)[C@@H]1O[C@@H]1O[C@H](CO)[C@H](O)[C@H](O)[C@H]1O (some centres unmarked) [Galβ1,3GalNAc] | 288 ± 3.01 µM | 222 ± 18.5 µM | 157 ± 4.69 µM | 264 ± 13.7 µM | – | – | – | – | – | – | –
CC(=O)N[C@H]1C(O)O[C@H](CO)[C@@H](O[C@@H]2O[C@H](CO)[C@H](O)[C@H](O)[C@H]2O)[C@@H]1O (some centres unmarked) [LacNAc] | – | 37.5 ± 0.48 µM | 29.4 ± 0.92 µM | 45.6 ± 1.64 µM | 36.2 ± 0.78 µM | 49.7 ± 0.95 µM | 48 ± 1.71 µM | 60 ± 1.1 µM | 59 ± 1.45 µM | – | –
OC[C@H]1O[C@@H](O[C@H]2[C@H](O)[C@@H](O)[C@H](n3cc(COc4ccc(C(=C(c5ccc(OCc6cn([C@@H]7O[C@H](CO)[C@@H](O[C@@H]8O[C@H](CO)[C@H](O)[C@H](O)[C@H]8O)[C@H](O)[C@H]7O)nn6)cc5)c5ccc(OCc6cn([C@@H]7O[C@H](CO)[C@@H](O[C@@H]8O[C@H](CO)[C@H](O)[C@H](O)[C@H]8O)[C@H](O)[C@H]7O)nn6)cc5)c5ccc(OCc6cn([C@@H]7O[C@H](CO)[C@@H](O[C@@H]8O[C@H](CO)[C@H](O)[C@H](O)[C@H]8O)[C@H](O)[C@H]7O)nn6)cc5)cc4)nn3)O[C@@H]2CO)[C@H](O)[C@@H](O)[C@H]1O [compound 2] | – | – | – | – | – | – | – | – | – | extent of binding of the Gal-3–Gal-3 homodimer was less potently reduced | Signal for binding of Gal-3 was strongly reduced in cells of the villi
